Laboratory results as given in US9505798B2, “Steroid compounds as RORyt modulators and uses thereof” (New York University, priority 2010, dated 2016).

What was measured:
[1] = tested on: human Th17 cell differentiation; assay: Human Th17 cell differentiation from naive cord blood CD4+ T cells; format: cell-based
Description: GFP expressing cells were gated for analysis. DMSO, Dig(dhd) (40 μM) or Dig(sal) (10 μM) was added 6-8 h after viral transduction. c, Flow cytometry of the production of IL-17a and IFN-γ by human naive cord blood T cells cultured for six days in the presence of IL-2, IL-23, and IL-1β, with various concentrations of TGF-β. DMSO, Dig(dhd), or Dig(sal) at indicated concentrations (μM) was added 16 h after cytokine addition.
Blood samples were obtained from the New York Blood Center. Mononuclear cells were prepared from buffy coats from healthy adult donors or from cord blood, using FicollPAQUE gradients. CD4^+ T cells were magnetically selected (autoMACS, Miltenyi). Adult memory CD4^+ T cell subsets were further purified as CD3^+CD4^+CD25^− CD45RO^+CCR6^+CD161^+ by cell sorting on a FACSAria (BD). Naive CD4^+ T cells were isolated from cord blood as CD3^+CD4^+CD45RA^+HLA-DR^−CD25^−DAPI^−. Memory cells were activated with anti-CD3/CD28 coated beads (1 bead/cell) in T cell media (see above) supplemented with 100 U/mL IL-2 (Peprotech), 10 ng/mL IL-1b and 10 ng/mL IL-23 (eBioscience). Naive cells were activated with anti-CD3/CD28 beads and cultured with the same cytokines, and TGF-b (0, 0.1, 1, or, 10 ng/mL) (Peprotech), in XVIVO-20 (Lonza) media. […] Naive CD4^+ T cells, cultured in XVIVO-20 media supplemented 100 U/mL IL-2 (Peprotech), were transduced with RORad-IRES-GFP or RORγt-IRES-GFP on day 1 and analyzed on day 6. GFP expressing cells were gated for analysis. DMSO or compounds were added 6-8 hours after the viral transduction.
Blood samples were obtained from the New York Blood Center. Mononuclear cells were prepared from buffy coats from healthy adult donors or from cord blood, using FicollPAQUE gradients. CD4^+ T cells were magnetically selected (autoMACS, Miltenyi). Adult memory CD4+ T cell subsets were further purified as CD3^+CD4^+CD25^−CD45RO^+CCR6^+CD161^+ by cell sorting on a FACSAria (BD). Naive CD4^+ T cells were isolated from cord blood as CD3^+CD4^+CD45RA^+HLA^−DR^−CD25^−DAPI^−. Memory cells were activated with anti-CD3/CD28 coated beads (1 bead/cell) in T cell media (see above) supplemented with 100 U/mL IL-2 (Peprotech), 10 ng/mL IL-1β and 10 ng/mL IL-23 (eBioscience). Naive cells were activated with anti-CD3/CD28 beads and cultured with the same cytokines, and TGF-β (0, 0.1, 1, or, 10 ng/mL) (Peprotech), in XVIVO-20 (Lonza) media. […] Naive CD4+ T cells, cultured in XVIVO-20 media supplemented with 100 U/mL IL-2 (Peprotech), were transduced with RORαd-IRES-GFP or RORγt-IRES-GFP on day 1 and analyzed on day 6. GFP expressing cells were gated for analysis. DMSO or compounds were added 6-8 hours after the viral transduction.

[2] = target: T1, VP16 (Human herpesvirus 1, UniProt P06492); assay: S2 cell VP16 luciferase reporter; format: cell-based, herpes simplex virus; conditions: 10 μM, FIG. 1c
T1 construct: herpes simplex virus VP16 (amino acids 413 to end); expressed in transfected cells
T1 sequence (P06492 413-490): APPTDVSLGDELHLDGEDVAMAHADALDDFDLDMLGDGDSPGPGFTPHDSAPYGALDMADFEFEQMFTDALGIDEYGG
Source text: The Drosophila S2 cell line was originally purchased from Invitrogen and was maintained in Schneider's medium supplemented with 10% heat-inactivated bovine fetal calf serum and antibiotics (Invitrogen). Gal4 DNA binding domain (G4 DBD) corresponding to amino acids 1 through 147 of Gal4 protein was PCR amplified to make a fusion construct with mouse RORγt (amino acids 79 to the carboxyl terminal end) lacking its DNA binding domain. The resulting chimeric gene was subcloned into the copper inducible pMT/V5-His A vector (Invitrogen). In a similar manner, Gal4 fusion constructs were prepared with mouse RORα (amino acids 142 to end) or Drosophila DHR3 (amino acids 120 to end). Coding sequences for firefly luciferase (Promega) were PCR amplified and subcloned into pUAST vector containing Gal4 binding enhancer sequences. Renilla luciferase construct under the polIII promoter was obtained from Dr. Dasgupta's laboratory (NYU medical center). In order to generate stable cell lines, cells were co-transfected with pMT-G4 DBD-RORγt, pMT-G4 DBD-RORα, pMT-G4 DBD-DHR3, or pMT-G4 DBDVP16 and pHygro plasmids (Invitrogen) and screened for resistant colonies in the presence of hygromycin (0.3 mg/mL). […]

| Structure (SMILES) | expression of CCR6 [1] | IFN-γ expression in T cells ([1]; FIG. 3c) | Th17 cell differentiation ([1]; FIG. 3c) | inhibition at 40 µM ([1]; Homo sapiens, CD4+ T, read-out: Th17 inhibition) [%] | effect on transcriptional activity of VP16 [2] |
| --- | --- | --- | --- | --- | --- |
| CC1O[C@@H](OC2C(C)O[C@H](OC3C(C)O[C@@H](O[C@H]4CC[C@@]5(C)[C@H](CC[C@@H]6[C@@H]5C[C@@H](O)[C@]5(C)[C@@H](C(CO)CCO)CC[C@]65O)C4)C[C@H]3O)C[C@H]2O)C[C@@H](O)C1O (some centres unmarked) [Compound 13, 20,22-Dihydrodigoxin-21,23-diol] | reduced | reciprocal increases | blocked | ~80 |  |
| C[C@H]1O[C@@H](O[C@H]2[C@@H](O)C[C@H](O[C@H]3[C@@H](O)C[C@H](O[C@H]4CC[C@@]5(C)[C@H](CC[C@@H]6[C@@H]5C[C@@H](O)[C@]5(C)[C@@H](C7=CC(=O)OC7)CC[C@]65O)C4)O[C@@H]3C)O[C@@H]2C)C[C@H](O)[C@@H]1O [Digoxin] |  |  |  |  | no effect |
